Values of other authors as cited in patent publication US7012096B2, “Composition for pain mediation and apparatus and method of use thereof” (Palladin Healthcare International, Inc., priority 1998, dated 2006).

What was measured:
[1] = tested on: human fibroblasts; settings: in vitro tissue culture
[2] = tested on: human keratinocytes; settings: in vitro tissue culture

## CC(=O)O [acetic acid]
[1]
  Concentration toxic to human fibroblasts: above 0.025%
[2]
  Concentration toxic to human keratinocytes: above 0.025%
